Assay results reported in ChEMBL document CHEMBL5120857, “Rational design, synthesis and biological evaluation of dual PARP-1/2 and TNKS1/2 inhibitors for cancer therapy” (Eur J Med Chem, 2022).

Experiments:
HCT-116 [1] = assay: Induction of apoptosis in human HCT-116 cells assessed as late apoptotic cells at 5 uM incubated for 3 days by annexinV-FITC/propidium iodide staining based flow cytometry (reference value: 8.71 %); format: functional; settings: time 3 day
HCT-116 [2] = assay: Induction of apoptosis in human HCT-116 cells assessed as early apoptotic cells at 1 uM incubated for 3 days by annexinV-FITC/propidium iodide staining based flow cytometry (reference value: 7.67 %); format: functional; settings: time 3 day
HCT-116 [3] = assay: Induction of apoptosis in human HCT-116 cells assessed as necrotic cells at 1 uM incubated for 3 days by annexinV-FITC/propidium iodide staining based flow cytometry (reference value: 3.65 %); format: functional; settings: time 3 day
HCT-116 [4] = assay: Induction of cell cycle arrest in human HCT-116 cells assessed as G0/G1 phase cells at 1 uM incubated for 3 days by propidium iodide staining based flow cytometry (reference value: 68.35 %); format: functional; settings: time 3 day
[5] = molecular target: T1, Protein mono-ADP-ribosyltransferase PARP12 (Homo sapiens, UniProt Q9H0J9); assay: Inhibition of PARP-12 (unknown origin)
T1 sequence (Q9H0J9 whole entry): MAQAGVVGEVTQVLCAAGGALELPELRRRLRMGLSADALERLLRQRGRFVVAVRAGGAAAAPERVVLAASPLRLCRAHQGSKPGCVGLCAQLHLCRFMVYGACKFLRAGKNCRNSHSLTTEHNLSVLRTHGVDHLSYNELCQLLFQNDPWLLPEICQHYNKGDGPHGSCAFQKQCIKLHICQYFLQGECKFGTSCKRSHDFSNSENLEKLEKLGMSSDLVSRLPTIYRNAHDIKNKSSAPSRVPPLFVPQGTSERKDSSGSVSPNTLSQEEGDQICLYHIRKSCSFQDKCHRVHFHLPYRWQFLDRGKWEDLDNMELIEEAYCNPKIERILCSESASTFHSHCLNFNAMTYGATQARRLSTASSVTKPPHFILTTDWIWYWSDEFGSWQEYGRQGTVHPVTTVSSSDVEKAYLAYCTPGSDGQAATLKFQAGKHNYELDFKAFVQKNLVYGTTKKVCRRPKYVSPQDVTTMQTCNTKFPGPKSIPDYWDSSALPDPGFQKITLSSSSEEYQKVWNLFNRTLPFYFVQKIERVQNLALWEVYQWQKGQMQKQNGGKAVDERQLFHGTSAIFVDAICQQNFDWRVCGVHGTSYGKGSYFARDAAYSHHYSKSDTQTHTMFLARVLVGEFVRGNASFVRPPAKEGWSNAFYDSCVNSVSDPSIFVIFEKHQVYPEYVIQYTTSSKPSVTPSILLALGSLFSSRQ

[6] = Toxicity in […] assessed as effect on body weight at 500 mg/kg, ip administered as single dose and measured on day 4 (reference value: 24.50 +/- 3.11 g); format: organism-based; settings: in vivo
[7] = Toxicity in […] assessed as morphological changes in jejunum at 500 mg/kg, ip by H&E staining based histopathological analysis; format: organism-based; settings: in vivo
HCT-116 [8] = assay: Antitumor activity against human HCT-116 cells xenografted in BALB/c nude mouse assessed as tumor growth inhibition at 100 mg/kg, ip administered once daily for 28 days; format: functional; settings: HCT-116, 672 h, time 28 day, read-out: TGI
[9] = molecular target: T2, Poly [ADP-ribose] polymerase tankyrase-1 (Homo sapiens) (UniProt O95271); settings: dose 10.0 nM, time 1.0 hrs
T2 sequence (whole entry): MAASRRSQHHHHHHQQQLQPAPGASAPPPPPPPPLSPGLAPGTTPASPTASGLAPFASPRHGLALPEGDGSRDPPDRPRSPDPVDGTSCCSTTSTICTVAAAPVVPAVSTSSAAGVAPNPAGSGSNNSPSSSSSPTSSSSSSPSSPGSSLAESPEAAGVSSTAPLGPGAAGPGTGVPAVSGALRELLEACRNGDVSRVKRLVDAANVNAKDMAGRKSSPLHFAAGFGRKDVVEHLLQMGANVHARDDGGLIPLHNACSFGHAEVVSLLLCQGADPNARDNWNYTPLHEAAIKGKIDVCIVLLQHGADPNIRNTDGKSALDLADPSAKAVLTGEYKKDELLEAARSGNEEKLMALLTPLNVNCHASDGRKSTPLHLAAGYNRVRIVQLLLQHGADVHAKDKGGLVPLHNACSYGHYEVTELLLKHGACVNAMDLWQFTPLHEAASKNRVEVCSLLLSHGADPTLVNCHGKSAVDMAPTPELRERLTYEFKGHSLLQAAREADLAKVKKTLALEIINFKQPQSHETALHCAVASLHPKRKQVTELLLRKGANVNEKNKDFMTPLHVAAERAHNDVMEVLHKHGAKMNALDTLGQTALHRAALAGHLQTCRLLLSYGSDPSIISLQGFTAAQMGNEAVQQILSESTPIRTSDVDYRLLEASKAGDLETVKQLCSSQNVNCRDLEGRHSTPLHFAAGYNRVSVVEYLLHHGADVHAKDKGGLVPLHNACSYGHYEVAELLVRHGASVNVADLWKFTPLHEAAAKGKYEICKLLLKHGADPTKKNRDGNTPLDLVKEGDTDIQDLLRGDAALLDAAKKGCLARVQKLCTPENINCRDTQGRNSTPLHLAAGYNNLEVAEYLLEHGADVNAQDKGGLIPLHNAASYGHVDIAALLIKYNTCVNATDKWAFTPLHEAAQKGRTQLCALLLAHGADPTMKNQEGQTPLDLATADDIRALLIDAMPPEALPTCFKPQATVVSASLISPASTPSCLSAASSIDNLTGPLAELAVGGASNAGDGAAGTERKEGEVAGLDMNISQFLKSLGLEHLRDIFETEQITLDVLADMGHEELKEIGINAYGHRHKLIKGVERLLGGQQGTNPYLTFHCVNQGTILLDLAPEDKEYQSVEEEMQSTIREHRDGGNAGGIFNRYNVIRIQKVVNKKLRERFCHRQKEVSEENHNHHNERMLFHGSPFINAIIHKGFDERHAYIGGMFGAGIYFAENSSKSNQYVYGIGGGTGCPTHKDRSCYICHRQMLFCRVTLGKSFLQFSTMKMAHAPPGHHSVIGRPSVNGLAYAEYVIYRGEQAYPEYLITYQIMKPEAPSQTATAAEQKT

SMILES: COc1ccc(NC(=O)c2ccc(NC(=O)N3CCN(C(=O)c4cc(Cc5n[nH]c(=O)c6ccccc56)ccc4F)CC3)cc2)cc1
- Activity (HCT-116 [1]): 39.5%
- Activity (HCT-116 [2]): 6.86%
- Activity (HCT-116 [3]): 4.57%
- Activity (HCT-116 [4]): 59.2%
- IC50 [5]: 0.371 µM
- Activity [6]: 23 g
- Activity [7]: Non-Toxic
- inhibition in vivo at 100 mg/kg (HCT-116 [8]): 51.7%
- inhibition [9]: 28%
